# Source: patent US20180051221A1, “UNLEADED GASOLINE FORMULATIONS FOR PISTON ENGINES” (Swift Fuels, LLC, priority 2014, published 2018)
# Where two headings read alike, the source gives them in different places.
# Experiments:
# [1] = Octane enhancement by aromatic amines blended into aviation gasoline (compared to baseline avgas); settings: for Octane @ 6%*: amine at 6% in aviation gasoline; for Octane @ 9%*: amine at 9% in aviation gasoline
# [2] = Solubility / physical state remarks on aromatic amines as avgas components; format: physicochemical; settings: remark on solubility above 6% or solid state at RT; b32 calls these solubility problems
# rat = settings: cited from earlier work
# [3] = occupational exposure limit, estimated; cited from earlier work
# [4] = cited from earlier work; for OSHA Hazards: public MSDS / OSHA data
# [5] = within 10 days; cited from earlier work
# [6] = oral, MSDS data from Sigma-Aldrich, et al.
Structure (SMILES),Octane @ 6%* [1],Octane @ 9%* [1],also measured
"Nc1cc(F)c(F)c(F)c1F [2,3,4,5-tetrafluorophenylamine]",1.70,2.50,Other [2]: solid@RT
Nc1ccccc1Cl [2-chlorophenylamine],4.50,5.60,–
Cc1ccc(N)c(F)c1 [2-fluoro-4-metylphenylamine],4.00,5.10,–
Cc1ccc(F)c(N)c1 [2-fluoro-5-metylphenylamine],3.60,5.10,–
Nc1ccccc1F [2-fluorophenylamine],4.20,7.30,–
Cc1ccccc1N [2-methylphenylamine],1.70,2.10,–
"Cc1ccc(N)cc1C [3,4-dimethylphenylamine]",5.60,–,–
"Cc1cc(C)cc(N)c1 [3,5-dimethylphenylamine]",5.70,8.70,–
Nc1cccc(Cl)c1 [3-chlorophenylamine],3.60,–,–
CCc1cccc(N)c1 [3-ethylphenylamine],3.80,6.60,–
Cc1c(N)cccc1F [3-fluoro-2-metylphenylamine],1.30,2.70,–
Nc1cccc(F)c1 [3-fluorophenylamine],4.20,6.70,–
Cc1cccc(N)c1 [3-methylphenylamine],5.40,7.40,"LD50 (rat, oral) (rat; in vivo, po): 450 mg/kg"
CCc1ccc(N)cc1 [4-ethylphenylamine],3.80,6.30,–
Cc1cc(F)ccc1N [4-fluoro-2-metylphenylamine],1.60,2.10,–
Nc1ccc(F)cc1 [4-fluorophenylamine],4.20,7.50,–
Cc1ccc(N)cc1 [4-methylphenylamine],6.10,–,–
CC(C)(C)c1ccc(N)cc1 [4-t-butylphenylamine],4.20,6.60,–
Cc1ccc(F)cc1N [5-fluoro-2-metylphenylamine],1.60,2.10,–
c1ccccc1 [Benzene],–,–,"LD50 (rat, oral) (rat; in vivo, po): 2,990 mg/kg"
"CC(C)c1ccc(N)cc1 [Cumidine, 4-isopropylaniline]",4.40,7.20,"TWA [3]: ~2 ppm; classification as mutagen or carcinogen ([4]; MSDS No. 818472, EMD Millipore): not classified as a mutagen or carcinogen; biodegradable [5]: 88%; LD50 (rat, oral) (rat; oral, MSDS No. 818472, EMD Millipore): 757 mg/kg; LD50 (rat, oral) (rat; [6]): 757 mg/kg"
"CCOC(C)(C)C [ETBE, ethyl tert-butyl ether]",–,–,"OSHA Hazards [4]: Irritant; LD50 (rat, oral) (rat; [6]): 5,000 mg/kg"
Cc1cc(C)cc(C)c1 [Mesitylene],–,–,"LD50 (rat, oral) (rat; [6]): 5,000 mg/kg"
CCNc1ccccc1 [N-ethylphenylamine],−2.50,–,–
CNc1ccc(F)cc1 [N-methyl-4-fluorophenylamine],2.50,2.60,–
CNc1ccccc1 [N-methylphenylamine],2.10,2.60,–
"C[CH2][Pb]([CH2]C)([CH2]C)[CH2]C [TEL, Tetraethyl lead]",–,–,"LD50 (rat, oral) (rat; [6]): 14 mg/kg"
Cc1ccccc1 [Toluene],–,–,"LD50 (rat, oral) (rat; [6]): 5,000 mg/kg"
Nc1ccccc1 [phenylamine],5.70,8.70,"OSHA Hazards ([4]; listed as aniline): irritant; LD50 (rat, oral) (rat; in vivo, po): 250 mg/kg"
